Experimental data published in ChEMBL document CHEMBL1201862, “PubChem BioAssay data set” (2004).
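Results reflect a 48-hour exposure of cells in 96-well plates to compound at five concentrations. Here, GI50 denotes the concentration required for 50% inhibition of growth.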 Calls of active or inactive are those of the source. No stated cut-off is given here; in the data, active = GI50 up to about 1.1 µM and inactive = higher.

What was measured:
Assay in all cases: NCI-60 cell line screen, 48 h
786-0 = tested on: 786-0
BT-549 = tested on: BT-549
CCRF-CEM = tested on: CCRF-CEM
DU-145 = tested on: DU-145
EKVX = tested on: EKVX
HCT-15 = tested on: HCT-15
HL-60 = tested on: HL-60
HOP-62 = tested on: HOP-62
MDA-MB-231 = tested on: MDA-MB-231
MDA-N = tested on: MDA-N
Malme-3M = tested on: Malme-3M
NCI/ADR-RES = tested on: NCI/ADR-RES
OVCAR-3 = tested on: OVCAR-3
OVCAR-8 = tested on: OVCAR-8
RPMI-8226 = tested on: RPMI-8226
SF-295 = tested on: SF-295
SK-MEL-2 = tested on: SK-MEL-2
SNB-75 = tested on: SNB-75
T47D = tested on: T47D
HOP-92 = tested on: HOP-92

| Structure (SMILES) | GI50 (786-0) | GI50 (BT-549) | GI50 (CCRF-CEM) | GI50 (DU-145) | GI50 (EKVX) | GI50 (HCT-15) [µM] | GI50 (HL-60) | GI50 (HOP-62) | GI50 (MDA-MB-231) | GI50 (MDA-N) | GI50 (Malme-3M) | GI50 (NCI/ADR-RES) | GI50 (OVCAR-3) | GI50 (OVCAR-8) | GI50 (RPMI-8226) | GI50 (SF-295) | GI50 (SK-MEL-2) | GI50 (SNB-75) | GI50 (T47D) | GI50 (HOP-92) |
| --- | --- | --- | --- | --- | --- | --- | --- | --- | --- | --- | --- | --- | --- | --- | --- | --- | --- | --- | --- | --- |
| Oc1ccc(-c2nc(-c3cccnc3)c(-c3ccc(F)cc3)[nH]2)cc1 | 22.9 µM (inactive) | 16.6 µM (inactive) | 10.7 µM (inactive) | 24 µM (inactive) | 19.3 µM (inactive) | 22.7 | 15.8 µM (inactive) | 21.6 µM (inactive) | 18.9 µM (inactive) | 19 µM (inactive) | 17.5 µM (inactive) | 19 µM (inactive) | 16.7 µM (inactive) | 17.9 µM (inactive) | 10.2 µM (inactive) | 16.7 µM (inactive) | 17.9 µM (inactive) | 18.2 µM (inactive) | 17.4 µM (inactive) | – |
| CCOC(=O)c1cc(C2CCN(c3ccccc3)C2=O)c(C(=O)/C=C(/C)N)[nH]1 (stereo not given) | 10.2 µM (inactive) | > 100 µM (inactive) | > 100 µM (inactive) | 54.5 µM (inactive) | 23.6 µM (inactive) | > 100 | > 100 µM (inactive) | 18.1 µM (inactive) | 56.4 µM (inactive) | 71.4 µM (inactive) | 17.6 µM (inactive) | 44 µM (inactive) | 39.6 µM (inactive) | 28.3 µM (inactive) | > 100 µM (inactive) | 15.9 µM (inactive) | > 100 µM (inactive) | 8.05 µM (inactive) | 32.8 µM (inactive) | – |
| COC(=O)c1ccc(/C=C2\Oc3cc(O)ccc3C2=O)cc1 | > 100 µM (inactive) | 39.8 µM (inactive) | 38.2 µM (inactive) | > 100 µM (inactive) | 49.2 µM (inactive) | 53.3 | 44.2 µM (inactive) | > 100 µM (inactive) | 65.9 µM (inactive) | 67.3 µM (inactive) | – | > 100 µM (inactive) | 53.3 µM (inactive) | 61.5 µM (inactive) | 29.4 µM (inactive) | 36.8 µM (inactive) | – | 39.4 µM (inactive) | 54.3 µM (inactive) | – |
| CCOC(=O)c1ccc(NCC#CCN2CCCCC2)cc1 | > 100 µM (inactive) | > 100 µM (inactive) | 19.7 µM (inactive) | > 100 µM (inactive) | > 100 µM (inactive) | 89.9 | 60.1 µM (inactive) | > 100 µM (inactive) | > 100 µM (inactive) | 60.4 µM (inactive) | > 100 µM (inactive) | > 100 µM (inactive) | > 100 µM (inactive) | – | > 100 µM (inactive) | – | > 100 µM (inactive) | – | > 100 µM (inactive) | > 100 µM (inactive) |
| O=C1/C(=C/c2ccccc2S)N=C(c2ccccc2)N1c1ccc2c(c1)Sc1cc(N3C(=O)/C(=C/c4ccccc4S)N=C3c3ccccc3)ccc1N2 | 22.9 µM (inactive) | 26.7 µM (inactive) | 15.2 µM (inactive) | 19.2 µM (inactive) | 20.7 µM (inactive) | 31.6 | – | 25.6 µM (inactive) | 28.4 µM (inactive) | 23.8 µM (inactive) | – | 35.5 µM (inactive) | 18.8 µM (inactive) | 19.4 µM (inactive) | 19 µM (inactive) | 16.8 µM (inactive) | 23.8 µM (inactive) | 15.8 µM (inactive) | 22.7 µM (inactive) | 14.9 µM (inactive) |
| COc1ccc2c(c1)-c1[nH]c3ccc(OC)cc3c1CC2 | 17.5 µM (inactive) | 17.7 µM (inactive) | 14.3 µM (inactive) | 17.1 µM (inactive) | 7.28 µM (inactive) | 10.6 | – | 16.3 µM (inactive) | 17.3 µM (inactive) | 14.7 µM (inactive) | 15 µM (inactive) | 11.4 µM (inactive) | 17.6 µM (inactive) | 13.9 µM (inactive) | 15.6 µM (inactive) | 13.1 µM (inactive) | 14.5 µM (inactive) | 13.5 µM (inactive) | 8.05 µM (inactive) | 19.2 µM (inactive) |
| COc1cccc2c1OC1c3ccccc3OCC1C2 (stereo not given) | > 100 µM (inactive) | 62.2 µM (inactive) | 42.8 µM (inactive) | > 100 µM (inactive) | 44.2 µM (inactive) | > 100 | – | > 100 µM (inactive) | > 100 µM (inactive) | > 100 µM (inactive) | > 100 µM (inactive) | 34.6 µM (inactive) | > 100 µM (inactive) | > 100 µM (inactive) | > 100 µM (inactive) | > 100 µM (inactive) | > 100 µM (inactive) | < 0.01 µM (active) | 44.1 µM (inactive) | – |
| COc1cc2c(cc1OC)C(=O)C1(C2)[C@H](c2ccccc2)C2C(=O)c3cc(OC)c(OC)cc3C2[C@H]1c1ccccc1 (stereo not given in full) | > 100 µM (inactive) | > 100 µM (inactive) | > 100 µM (inactive) | > 100 µM (inactive) | > 100 µM (inactive) | > 100 | > 100 µM (inactive) | > 100 µM (inactive) | > 100 µM (inactive) | > 100 µM (inactive) | > 100 µM (inactive) | > 100 µM (inactive) | > 100 µM (inactive) | > 100 µM (inactive) | > 100 µM (inactive) | > 100 µM (inactive) | – | 24.8 µM (inactive) | 10.5 µM (inactive) | – |
